The source of these data is patent US20230338348A1, “RENIN-ANGIOTENSIN SYSTEM (RAS) MODULATORS FOR TREATMENT OF VIRAL INFECTIONS, PHARMACEUTICAL COMPOSITIONS INCLUDING THE SAME, AND METHODS OF TREATING USING THE SAME” (Trocar Pharma Inc., priority 2020, published 2023).

One data set has as its target T1, Human AT1 (Homo sapiens, UniProt P30556).
T1 sequence (P30556 1-359): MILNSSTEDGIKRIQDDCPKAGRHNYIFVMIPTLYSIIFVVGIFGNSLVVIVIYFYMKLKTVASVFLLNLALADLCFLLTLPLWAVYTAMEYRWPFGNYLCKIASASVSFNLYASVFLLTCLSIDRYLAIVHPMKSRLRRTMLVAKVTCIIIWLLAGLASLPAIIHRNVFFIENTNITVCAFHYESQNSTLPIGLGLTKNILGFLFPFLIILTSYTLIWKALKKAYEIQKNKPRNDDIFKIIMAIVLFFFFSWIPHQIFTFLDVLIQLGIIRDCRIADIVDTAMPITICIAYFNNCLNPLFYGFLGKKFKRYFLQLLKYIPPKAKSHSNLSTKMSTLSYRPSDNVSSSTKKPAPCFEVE
In words: Angiotensin II AT1 receptor inhibition. Type of data set: binding. To be noted: Human AT1, at 1.0 × 10^−8M drug, N = 2.

Another data set concerns the target T2, AT2, angiotensin II (Homo sapiens, UniProt P50052).
T2 sequence (P50052 1-363): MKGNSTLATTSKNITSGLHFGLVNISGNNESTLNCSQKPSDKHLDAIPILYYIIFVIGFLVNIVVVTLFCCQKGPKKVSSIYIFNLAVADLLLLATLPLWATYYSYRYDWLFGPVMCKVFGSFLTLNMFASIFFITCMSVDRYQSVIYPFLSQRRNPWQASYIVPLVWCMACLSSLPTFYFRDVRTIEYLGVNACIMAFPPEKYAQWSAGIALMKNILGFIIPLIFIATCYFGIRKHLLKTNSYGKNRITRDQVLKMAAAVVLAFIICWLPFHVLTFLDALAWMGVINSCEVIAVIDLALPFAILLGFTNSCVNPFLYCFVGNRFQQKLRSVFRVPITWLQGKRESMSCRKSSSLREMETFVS
Kind of data set: Angiotensin II AT2 receptor inhibition. Type of data set: binding. To be noted: at 1.0 × 10^−9M drug, N = 2.

The subject of data set [1] is Preglomerular vascular smooth muscle cells. In words: O2- generation in Ang II-stimulated preglomerular vascular smooth muscle cells. To be noted: cells stimulated by 10^−6 M Ang II. It is filed as cell-based. The source says: Preglomerular vascular smooth muscle cells were stimulated by 10^−6 M Ang II to produce O2^−.
For data set [2] the following is noted: in vivo; cited from earlier work.

Usually inhibition stands for the relative decrease from the control value, in per cent. One may read the half-life as the time in which the quantity being followed falls by half. Turning to `CCCc1nc2c(C)cc(-c3nc4ccccc4n3C)cc2n1Cc1ccc(-c2ccccc2C(=O)O)cc1` [Telmisartan], at 0.01 µM the inhibition against Human AT1 was 52.7%. Moreover, 0.001 µM produced 6.37% inhibition against AT2, angiotensin II. Besides, the “inhibition of O2− generation (antioxidant action)” value in data set [1] is given as “do not have antioxidant actions”. In addition, the half-life in data set [2] is 24 h.
